Like-named read-outs stand apart in the source and are kept apart here.
Experiments:
[1] = molecular target: LdtMt2 (Mycobacterium tuberculosis, UniProt I6Y9J2); experiment: Inhibition of L,D-transpeptidase by DBOs, residual nitrocefin hydrolysis; type: biochemical, M. tuberculosis; settings: 260 min, Inhibitor/LdtMt2 molar ratio 20 (DBO 200 μM, enzyme 10 μM); 260 min at 37° C.; read-out: Residual activity of LdtMt2 following pre-incubation
[2] = test system: M. tuberculosis H37Rv; experiment: microbe, parasite or virus in culture; type: cell-based; settings: for MIC: Mycobacterium tuberculosis, H37RV
[3] = test system: M. abscessus CIP104536; experiment: MIC of amoxicillin in presence or absence of DBOs, microdilution; type: cell-based; settings: for Fold reduction in the MIC of amoxicillin: M. abscessus, DBO 15 μM; for MIC of amoxicillin / MIC: M. abscessus CIP104536, DBO at 15 μM, listed as None = amoxicillin alone; for MIC: Mycobacteroides abscessus
[4] = molecular target: BlaC (Mycobacterium tuberculosis, UniProt P9WKD3); experiment: Carbamoylation of β-lactamase by DBOs, nitrocefin spectrophotometry; type: biochemical; settings: for Carbamoylation efficacy of β-lactamase BlaC: 20° C., nitrocefin 100 μM, MES pH 6.4, highest DBO concentration 100 μM
[5] = test system: BlaMab; experiment: as above; type: biochemical, Mycobacterium abscessus; settings: for Carbamoylation efficacy of β-lactamase BlaMab: 20° C., nitrocefin 100 μM, MES pH 6.4
[6] = test system: Ldtfm; experiment: Inhibition of L,D-transpeptidase by DBOs, residual nitrocefin hydrolysis; type: biochemical, E. faecium; settings: 260 min at 37° C.
[7] = test system: M. tuberculosis H37Rv ΔblaC; experiment: microbe, parasite or virus in culture; type: cell-based; settings: for MIC: Mycobacterium tuberculosis, H37RV
[8] = test system: M. abscessus CIP104536 ΔblaMab; experiment: microbe, parasite or virus in culture; type: cell-based; settings: for MIC: Mycobacteroides abscessus
[9] = Inhibitor/Ldtfm molar ratio 1, enzyme 10 μM
[10] = Inhibitor/Ldtfm molar ratio 2.5, enzyme 10 μM
[11] = Inhibitor/Ldtfm molar ratio 5, enzyme 10 μM
[12] = Inhibitor/Ldtfm molar ratio 10, enzyme 10 μM
[13] = Inhibitor/Ldtfm molar ratio 20 (DBO 200 μM, enzyme 10 μM)
[14] = read-out: MIC of amoxicillin against indicated strain

LdtMt2, sequence (I6Y9J2 55-408): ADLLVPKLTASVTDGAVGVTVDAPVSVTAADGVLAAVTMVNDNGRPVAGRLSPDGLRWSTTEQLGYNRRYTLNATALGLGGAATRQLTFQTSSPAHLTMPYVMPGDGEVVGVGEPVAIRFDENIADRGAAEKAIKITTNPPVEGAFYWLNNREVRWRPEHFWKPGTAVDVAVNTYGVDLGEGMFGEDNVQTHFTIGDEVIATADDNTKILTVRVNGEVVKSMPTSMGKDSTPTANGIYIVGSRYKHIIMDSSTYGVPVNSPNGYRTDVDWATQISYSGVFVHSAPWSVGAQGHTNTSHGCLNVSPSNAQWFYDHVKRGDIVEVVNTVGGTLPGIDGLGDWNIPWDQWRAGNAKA
BlaC, sequence (P9WKD3 39-306): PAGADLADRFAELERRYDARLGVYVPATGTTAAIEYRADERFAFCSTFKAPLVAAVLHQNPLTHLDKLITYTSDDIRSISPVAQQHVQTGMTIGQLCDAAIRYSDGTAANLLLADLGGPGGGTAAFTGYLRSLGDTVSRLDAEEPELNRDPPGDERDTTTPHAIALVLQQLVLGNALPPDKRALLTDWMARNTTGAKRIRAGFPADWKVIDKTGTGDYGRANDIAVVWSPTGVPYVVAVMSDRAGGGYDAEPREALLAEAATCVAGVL

Row | Compound | remaining activity at 200 µM [1] | Fold reduction in the MIC of amoxicillin [2] | Fold reduction in the MIC of amoxicillin [3] | Carbamoylation efficacy of β-lactamase BlaC [4] | Carbamoylation efficacy of β-lactamase BlaMab [5] | Residual activity of Ldtfm following pre-incubation [6, 9] | Residual activity of Ldtfm following pre-incubation [6, 10] | Residual activity of Ldtfm following pre-incubation [6, 11] | Residual activity of Ldtfm following pre-incubation [6, 12] | Residual activity of Ldtfm following pre-incubation [6, 13] | other results
1 | O=C1N2C[C@@H](CC[C@H]2Cn2cc(-c3ccccc3)nn2)N1OS(=O)(=O)O [Compound 1a.i.16] | 8.3% |  |  |  |  |  |  |  |  |  | 
2 | NC(=O)[C@@H]1CC[C@@H]2CN1C(=O)N2OS(=O)(=O)O [Avibactam, reference compound] |  | at least 16 fold | at least 16 fold | (2.4 ± 0.8) × 10^1 M^−1 s^−1 | (1.7 ± 0.1) × 10^5 M^−1 s^−1 | 66.3% | 36.4% | 15.8% | 3.4% | 2.4% | Inhibition of the β-lactamase activity of BlaC (in words) ([4]; nitrocefin as the substrate, tested up to 100 μM): poorly inhibited; Inhibition of the β-lactamase activity of BlaMab (in words) ([5]; nitrocefin as the substrate): most efficacious inhibition
3 | O=C1N2C[C@@H](CC[C@H]2Cn2cc(CN3CCOCC3)nn2)N1OS(=O)(=O)[O-].[Na+] [Compound 1a.i.11] | 73.9% | less active | less active | <5 × 10^0 M^−1 s^−1 | (4.4 ± 0.2) × 10^3 M^−1 s^−1 | 92.0% | 83.9% | 68.6% | 51.8% | 28.1% | 
4 | C[Si](C)(C)c1cn(C[C@@H]2CC[C@@H]3CN2C(=O)N3OS(=O)(=O)O)nn1 [Compound 2a.i] | 72.4% |  |  | <5 × 10^0 M^−1 s^−1 | (6.2 ± 0.2) × 10^4 M^−1 s^−1 | 88.8% | 82.7% | 68.0% | 50.7% | 27.2% | 
5 | O=C1N2C[C@@H](CC[C@H]2Cn2cc(-c3cccnc3)nn2)N1OS(=O)(=O)O [Compound 1a.i] | 14.5% | activity similar to that of avibactam | activity similar to that of avibactam | <5 × 10^0 M^−1 s^−1 | (2.2 ± 0.1) × 10^4 M^−1 s^−1 | 88.6% | 76.1% | 63.6% | 34.3% | 15.8% | MIC of amoxicillin [2]: 16 µg/mL; MIC of amoxicillin ([3]; Table 1): 16 µg/mL; MIC of amoxicillin [7]: 1 µg/mL; MIC of amoxicillin ([8]; Table 1, M. abscessus CIP104536 ΔblaMab, DBO at 15 μM, listed as None = amoxicillin alone): 4 µg/mL
6 | CC1(C)S[C@@H]2[C@H](NC(=O)[C@H](N)c3ccc(O)cc3)C(=O)N2[C@H]1C(=O)O [amoxicillin, reference compound] |  |  |  |  |  |  |  |  |  |  | MIC ([2]; read-out: MIC of amoxicillin): 128 µg/mL; MIC [2, 14]: 128 µg/mL; MIC ([3]; Table 1, read-out: MIC of amoxicillin): > 256 µg/mL; MIC ([3]; Table 2, read-out: MIC of amoxicillin against indicated strain): > 256 µg/mL; MIC of amoxicillin ([3]; Table 1): >256 µg/mL; MIC ([7]; read-out: MIC of amoxicillin): 1 µg/mL; MIC [7, 14]: 1 µg/mL; MIC ([8]; CIP104536, read-out: MIC of amoxicillin): 4 µg/mL; MIC ([8]; CIP104536, read-out: MIC of amoxicillin against indicated strain): 4 µg/mL
7 | COCc1cn(C[C@@H]2CC[C@@H]3CN2C(=O)N3OS(=O)(=O)O)nn1 [Compound 1a.i.13] | 41.7% |  |  |  |  |  |  |  |  |  | 
8 | O=C(O)CCc1cn(C[C@@H]2CC[C@@H]3CN2C(=O)N3OS(=O)(=O)O)nn1 [Compound 1a.i.14] | 87.1% |  |  |  |  |  |  |  |  |  | 

— US20200325139A1, “NEW ANTIBIOTICS TARGETING MYCOBACTERIA” (priority 2017, published 2020)
